Experiment: gradient 5% acetonitrile 3 min, to 50% in 2 min, to 85% in 15 min, held 3 min, 100 µL/min
Details: column: Zorbax Extend-C18 2.1 x 50 mm; eluents: water / acetonitrile, 0.1% formic acid
Summary of the method: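 In both positive and negative ionization mode, a quadrupole time-of-flight mass spectrometer coupled to HPLC analyzed pure standards run in mixtures of ~100 molecules. The Zorbax Extend-C18 column (2.1 × 50 mm, 1.8 μm) was operated at 100 μL/min with water and acetonitrile, each containing 0.1% formic acid. The dead volume was 40 μL and the dwell volume 900 μL. Retention time came from adduct peaks that were computationally picked and individually inspected by hand.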

Row | SMILES | RP-LC retention time [s]
1 | O=C(Nc1cc(-c2ccccn2)no1)c1nccc2ccccc12 | 956
2 | Cc1ccsc1C(=O)NCc1ccc2c(c1)ncn2C | 597
3 | CCOCCCNC(=O)C1CCN(C2=NS(=O)(=O)C(c3ccc(C(C)C)cc3)=C2C)CC1 | 858
4 | Cc1ccc(NC(=O)CN2CCc3ccccc3C2C(=O)N2CCCCC2)cc1Cl (centres undefined) | 1030
5 | CCOc1ccc(NC(=O)c2cc(C)n3nc(C)cc3n2)cc1 | 976
6 | Cc1cc2[nH]c(C(=O)Nc3ccc(Cl)cc3F)c(CN3CCOCC3)c2s1 | 759
7 | CSc1ccc(C2C(C(=O)N3CCOCC3)=C(C)NC3=C2C(=O)CC(C)(C)C3)cc1 (centres undefined) | 696
8 | CC1CN(C(=O)CSc2cn(CC(=O)N3CCCCC3)c3ccccc23)CC(C)O1 (centres undefined) | 812
9 | O=C(NC1CCCN(c2cc(-c3ccncc3)[nH]n2)C1)c1ccc(F)cc1 (centres undefined) | 599
10 | CC1CCCN(c2ccc(-c3noc(CN4CCc5ccccc5C4)n3)cn2)C1 (centres undefined) | 970
11 | O=C(CSc1ncn[nH]1)Nc1ccc(Cl)cc1 | 642
12 | CCN1CCn2cc(S(=O)(=O)Nc3ccccc3Cl)cc2C1=O | 706
13 | CC(C)(Oc1ccc(Cl)cc1)C(=O)Nc1c(-c2ccc(F)cc2)nc2ccccn12 | 821
14 | Nc1c(C(=O)NCc2ccc3c(c2)OCO3)nsc1C(=O)N1CCN(c2ncccn2)CC1 | 850
15 | CC(C)(CO)NC(=O)Cc1ccc(NC(=O)c2ccc(Cl)s2)cc1 | 704
16 | O=C(c1ccc(F)c(Cl)c1)N1CCN(c2cc(-c3cccs3)[nH]n2)CC1 | 800
17 | Cc1nn(C)c(C)c1S(=O)(=O)N1CCc2nn(Cc3ccccc3)c(=O)n2CC1 | 714
18 | CCC(=O)N1CCc2cn(C)c3cccc(c23)C1 | 768
19 | Cc1ccc(C)c(NC(=O)C2CCN(S(=O)(=O)c3ccc4c(c3)CCCC(=O)N4)CC2)c1 | 768
20 | CCOc1cccc(-c2noc(-c3nn(-c4ccc(OC)cc4)ccc3=O)n2)c1 | 938
21 | COC(=O)C(Cc1ccccc1)NC(=O)Nc1cccn2cnnc12 (centres undefined) | 700
22 | O=C(COc1ccccc1)N1CCN(c2cc(-c3ccccc3)[nH]n2)CC1 | 776
23 | CCn1ccc(C(=O)N2CCN(c3nc(CN4CCC(C)CC4)cs3)CC2)n1 | 613

Row | SMILES | RP-LC retention time [s]
24 | Nc1cc(C2CCN(C(=O)c3ccc4c(c3)OCO4)CC2)no1 | 651
25 | Cc1ccc(S(=O)(=O)N2CCC(N3CC(F)(F)C[C@H]3CN(C)C)CC2)c(C)c1 | 715
26 | Cc1ccc(NC(=O)NC2CCN(c3ccc(F)cc3)C2=O)cc1F (centres undefined) | 886
27 | CN(C)c1ccc(-c2nc3cnccn3c2Nc2cccc(Cl)c2)cc1 | 879
28 | Cc1ccc(CCN2CC(C(=O)N3CCN(c4cc(=O)n(C)c(=O)n4C)CC3)CC2=O)cc1 (centres undefined) | 656
29 | Cc1cc(NC(=O)Cc2nn(C)c(=O)c3ccccc23)ccc1Br | 856
30 | CCOC(=O)c1cc(S(=O)(=O)N2CCCC2C(=O)N(CC)c2ccc(OC)cc2)cn1C (centres undefined) | 892
31 | O=c1c(=O)n(-c2ccccc2)ccn1Cc1nc(-c2ccc(F)c(Cl)c2)no1 | 894
32 | CCn1ccc(-c2nc(-c3ccc4oc(-c5ccccc5)nc4c3)no2)n1 | 1130
33 | CC(C)CC(=O)Nc1ccc2c(c1)nc(CN1CCCC1)n2C(C)C | 612
34 | Cc1oc(C2CCN(C(=O)Cc3cccs3)CC2)nc1C(=O)N1CCSCC1 | 742
35 | CCS(=O)(=O)N(C1CC1)C1CCOC2(CCN(C(=O)c3sc(C)nc3C)CC2)C1 (centres undefined) | 714
36 | CCc1nc(OCC(=O)Nc2cc(F)ccc2F)c2ccccc2n1 | 854
37 | NC(=O)C1CCN(c2ncnc3c2oc2ccccc23)CC1 | 584
38 | COc1ccc(C2(C(=O)N3CCN(C(=O)N4C[C@H]5C[C@H](C4)[C@H]4CCCC(=O)N4C5)CC3)CC2)cc1 | 696
39 | O=C(C1CCN(S(=O)(=O)c2ccc(-c3noc(C4CC4)n3)cc2)CC1)N1CCc2ccccc2C1 | 1050
40 | CCCn1cnnc1C1CCCCN1S(=O)(=O)c1cccc(C#N)c1 (centres undefined) | 748
41 | Cc1ccc(NC(=O)c2c(O)c3cccnc3n(-c3ccc(F)cc3)c2=O)c(C)c1 | 1320
42 | CN1CCN(CCNC(=O)c2nn(-c3ccc(Cl)cc3)c3c(=O)n(C)cnc23)CC1 | 602
43 | CC(C)c1nnc(-c2ccc(S(=O)(=O)N3CCN(C(C)C)CC3)o2)o1 | 608
44 | COc1ccc(NC(=O)N2CCCC2c2nncn2C2CCCC2)c(OC)c1 (centres undefined) | 662
45 | COc1cccc(NC(=O)C2(C)CCCCC(=O)N2)c1 (centres undefined) | 601
46 | CC(C)NC(=O)Cn1cccc(-c2nc(-c3ccc(Br)cc3)no2)c1=O | 824

Row | SMILES | RP-LC retention time [s]
47 | CC(=O)N1CCC(c2nc(-c3ccc4c(c3)ncn4CCN3CCCC3)no2)CC1 | 553
48 | Cc1nc2cc(-c3noc(-c4ccc(F)cc4)n3)ccc2n(C)c1=O | 1030
49 | CC1(C)CC(=O)C2=C(C1)N(Cc1cccnc1)C(=O)C2(NC(=O)C1CCCCC1)C(F)(F)F (centres undefined) | 659
50 | CCc1cc(C2CCCN2C(=O)NCc2cccc(OC)c2)on1 (centres undefined) | 855
51 | Cc1ccc(N2CCn3c2nc2c3c(=O)n(CC(=O)O)c(=O)n2C)cc1 | 730
52 | O=C(NC1CCCCC1)C1CCN(S(=O)(=O)c2cc(C(=O)N3CCOCC3)cs2)CC1 | 710
53 | Cc1cc(-c2ccc(S(=O)(=O)N3CCC(C(=O)NC4CCCC4)CC3)o2)n[nH]1 | 737
54 | COc1cccc(NC(=O)C2CC(=O)N(c3ccc4c(c3)CCN4C(=O)C3CC3)C2)c1 (centres undefined) | 655
55 | COc1ccc(-n2ccnc2SCC(=O)NCc2ccc3c(c2)OCO3)c(OC)c1 | 630
56 | CCc1ccc(N2CC(c3noc(-c4ccco4)n3)CC2=O)cc1 (centres undefined) | 921
57 | Cc1cc(C)nc(Sc2ccc(S(C)(=O)=O)cc2[N+](=O)[O-])n1 | 750
58 | CC1(c2nc(-c3ccccc3)no2)CCCN(Cc2ncon2)C1 (centres undefined) | 754
59 | COc1ccc(NC(=O)c2cnc3c(c2)c(=O)n(C)c(=O)n3-c2ccc(OC)cc2)cc1 | 859
60 | COc1ccccc1C(=O)Nc1nnc(C2CC(=O)N(c3ccccc3)C2)o1 (centres undefined) | 720
61 | Fc1cccc(-c2noc(-c3nc(-c4ccncc4)no3)n2)c1 | 951
62 | CN(C)C(=O)c1n[nH]c2c1CN(C(=O)c1ccc(C(F)(F)F)cc1)CC2 | 674
63 | Cc1ccc(C)c(NC(=O)Cn2c(=O)nc(N3CCC(C)CC3)c3ccccc32)c1 | 880
64 | O=C1c2ccccc2C(=O)c2c(NCCNCCO)ccc(O)c21 | 634
65 | CCn1ncc(CN2CC(c3nc(CCOCc4ccccc4)no3)C2)c1C | 662
66 | O=C(COc1ccc(F)c(F)c1)NCC1CCOCC1 | 719
67 | O=C(c1cn(-c2cc(N3CCCCC3)ncn2)cn1)N1CCN(C(=O)c2ccco2)CC1 | 675
68 | Cc1ccc(CNC(=O)CCC2CCCN(S(=O)(=O)c3ccccc3C)C2)cc1 (centres undefined) | 1010
69 | C=C[C@H]1CN2CC[C@H]1C[C@@H]2[C@@H](O)c1ccnc2ccc(OC)cc12 | 616

Row | SMILES | RP-LC retention time [s]
70 | O=C(Cn1c(-c2nnco2)cc2ccccc21)NCC1CCCO1 (centres undefined) | 668
71 | COc1ccc(-c2csc(NC(=O)C3(c4ccccc4)CCCC3)n2)cc1OC | 1170
72 | COc1c(C)cc(S(=O)(=O)NCCN2CCOCC2)c(C)c1C | 568
73 | Cc1ccsc1CN1CCc2nc(N3CCN(c4ccc(F)cc4)CC3)ncc2C1 | 734
74 | Cc1ccc(CNC(=O)C2(C)CCCN(C(=O)NCc3ccc(F)cc3)C2)cc1 (centres undefined) | 864
75 | Cc1cccc(NC(=O)Nc2ccc3c(c2)CCN3S(=O)(=O)c2ccccc2)c1 | 994
76 | Cc1cc(N(C)C)n2nc(CN3CCC(Cc4ccccc4)CC3)nc2n1 | 637
77 | Cc1cc(C)c(NC(=O)Cn2nc3cc(C)nc(-c4ccccc4)n3c2=O)c(C)c1 | 867
78 | O=C(CC(F)(F)F)N1CCCC(CCc2nnc(C3CCOCC3)o2)C1 (centres undefined) | 682
79 | CCOC(=O)NCc1nc(COc2ccc(OC)cc2)no1 | 727
80 | CC(CNC(=O)C1CCN(C(=O)c2ncn3c2COC(c2ccc(F)cc2)C3)CC1)c1ccccc1 (centres undefined) | 754
81 | Cc1nnc(-c2nnc(NC3CCCCC3)c3ccccc23)o1 | 688
82 | Cc1oc(-c2[nH]ncc2C(=O)N2CCCC2)cc1S(=O)(=O)N1CCN(CC(C)C)CC1 | 580
83 | CCc1nc2c(=O)n(CC(=O)N3CCN(c4cc(C)ccc4C)CC3)nc(C)c2s1 | 911
84 | Cc1csc(-c2ccc(N3CCN(C(=O)c4cc(F)ccc4F)CC3)nc2)n1 | 996
85 | O=C(Nc1nc(-c2ccccc2)cs1)c1ccc(F)cc1 | 995
86 | COc1ccc(CNC(=O)N2CCN(Cc3nc4cc(Cl)ccc4o3)CC2)cc1 | 667
87 | CCOC(=O)c1noc2nc(C)nc(NCCc3ccc(C)cc3)c12 | 1130
88 | Cc1nc2ncc(-c3ccnc(N4CCN(Cc5ccccc5)CC4)n3)c(C)n2n1 | 604
89 | CSc1cccc(NC(=O)Cn2c(N3CCOCC3)nc(C)cc2=O)c1 | 694

From the METLIN SMRT retention time set (Domingo-Almenara et al. 2019)
